Data set [1] has as its system Pa03C cells. Kind of data set: MTT cytotoxicity, Pa03C cells. It counts as cell-based. The following applies: for cell viability: 1440 min. On the procedure: Pa03C cells were seeded in 96-well plates at a density of 4000 cells per well and allowed to adhere for 24 hours. Cells were incubated with drug-free nanocapsules (pEGCGs), free paclitaxel, or EFN nanocapsules of paclitaxel at concentrations ranging from 0.001 to 10 µg/mL calculated by paclitaxel content at 37 °C and 5% CO2 for 24 hr. After the incubation, the cells were washed with PBS 3 times, and 100 μL fresh medium was added to each well. Then, cells were cultured for […] another 24 hours. After incubation, 100 μL fresh medium was changed to each well, and 10 μL MTT was added to each well, followed by a 4 h incubation for cleavage at 37 °C. Then 100 μL isopropanol with 0.04 N HCl was added to each well and mixed thoroughly with the medium by repeated pipetting. The result was read with a test wavelength of 570 nm and a reference wavelength of 630 nm using a Microplate Spectrophotometer. Experiments were performed in triplicate and presented as means±SD.

For data set [2] the following is noted: cited from earlier work.
Data set [3] deals with PANC-1 cells. The data set can be described thus: MTT cytotoxicity, PANC-1 cells (VPX). It is filed as cell-based, human. Conditions: 24 hr. The method, then:
(§1) PANC-1 cells were seeded in 96-well plates at a density of 5000 cells per well and allowed to adhere for 24 hours. CAF19 cells were seeded in 96-well plates at a density of 1500 cells per well and allowed to adhere for 24 hours. Cells were incubated with drug-free nanocapsules (pTAs), free drug of VPX, or TFN nanocapsules of VPX at the concentrations ranging from 0.05 to 20 μM calculated by VPX content at 37 °C and 5% CO2 for 24 hr. After the incubation, the cells were washed with PBS 3 times, and 100 μL fresh medium was added to each well. Cells were cultured for another 24 hours. After incubation, 100 μL fresh medium was changed to each well, and 10 μL MTT was added to each well, followed by 4 hr incubation for cleavage at 37 °C. Then 100 μL isopropanol with 0.04 N HCl was added to each well and mixed thoroughly with the medium by repeated pipetting. The result was read with a test wavelength of 570 nm and a reference wavelength of 630 nm using a Microplate Spectrophotometer. Experiments were performed in triplicate and presented as means±SD.

The test system of data set [4] is CAF19 cells. Kind of data set: MTT cytotoxicity, CAF19 cells (VPX). It is filed as cell-based. The following applies: 24 hr. On the procedure: as §1
The test system of data set [5] is Pancl cells. Kind of data set: MTT cytotoxicity, Panc1 cells (curcumin). It counts as cell-based, human. Conditions: dosages >40 μM. The method, then: Panc 10.05 or Pancl cells were seeded in 96-well plates at a density of 5,000 cells per well and allowed to adhere overnight. Panc10.05 cells were incubated with drug-free nanocapsules (pTAs), free paclitaxel, or TFN nanocapsules of paclitaxel at the concentrations ranging from 0.001 to 10 μg mL^−1 calculated by paclitaxel content at 37 °C and 5% CO2 for 24 hr. Pancl cells were incubated with pTAs, free curcumin, or TFN nanocapsules of curcumin at the concentration of 5-160 μM calculated by curcumin content at 37 °C and 5% CO2 for 48 hr. After the incubation, the cells were washed with PBS three times, and 100 μL fresh medium was added to each well. Then cells were cultured for another 24 hours. After incubation, 100 μL fresh medium was added to each well, and 10 μL MTT was added to each well, followed by a 4 h incubation for cleavage at 37 °C. Then 100 μL isopropanol with 0.04 N HCl was added to each well and mixed thoroughly with the medium by repeated pipetting. The result was read with a test wavelength of 570 nm and a reference wavelength of 630 nm using a Microplate Spectrophotometer. Experiments were performed in triplicate and presented as means±SD.

Where “and” joins values, the source holds several entries; their conditions need not be identical. Equal entries are not always repeated. Where two headings read alike, the source gives them in different places.

Regarding `O=C(O[C@@H]1Cc2c(O)cc(O)cc2O[C@@H]1c1cc(O)c(O)c(O)c1)c1cc(O)c(O)c(O)c1` [EGCG, epigallocatechin-3-gallate], the anticancer activity result in data set [1] (EGCG on its own (from EFN cytotoxicity test)) is “significant anticancer activity”.

For `C=C1CC[C@H](O)C/C1=C/C=C1\CCC[C@]2(C)[C@@H]([C@H](C)CCCC(C)C)CC[C@@H]12` [VD3, vitamin D], in data set [2] (room temperature), the water solubility is below 1 ng/mL.

As for `CCOC(=O)N[C@@H]1CC[C@@H]2[C@@H](C1)C[C@H]1C(=O)O[C@H](C)[C@H]1[C@H]2/C=C/c1ccc(-c2cccc(F)c2)cn1` [VPX, vorapaxar], the cell viability result in data set [3] (VPX treatment up to 20 μM) and in data set [4] (VPX treatment up to 20 μM) was “above 100%” in each case. Besides, the toxicity result in data set [3] (up to 20 μM (VPX content)) and in data set [4] (up to 20 μM (VPX content)) was “no toxicity” throughout. Also, in data set [2] (VPX), the water solubility is 1.4 μg/mL and ~ 3 μM.

For the compound `CC(=O)O[C@H]1C(=O)[C@@]2(C)[C@H]([C@H](OC(=O)c3ccccc3)[C@]3(O)C[C@H](OC(=O)[C@H](O)[C@@H](NC(=O)c4ccccc4)c4ccccc4)C(C)=C1C3(C)C)[C@]1(OC(C)=O)CO[C@@H]1C[C@@H]2O` [free PTX, paclitaxel], in data set [2] (water), the water solubility was above 1000 ng/mL. Besides, the cell viability in data set [1] (PTX dosages >0.1 g/mL) and in data set [1] (dosages of 1-10 μg/mL) was ~ 50% in each case.

In the case of `COc1cc(/C=C/C(=O)CC(=O)/C=C/c2ccc(O)c(OC)c2)ccc1O` [free curcumin, curcumin], the “suppression of cell growth” value in data set [5] is recorded as “significant suppression of Pancl growth”.

The record behind these values is patent US20260373093A1, “TIMESCALE-GUIDED MICROFLUIDIC SYNTHESIS OF POLYPHENOL-IRON III NETWORK NANOCAPSULES OF HYDROPHOBIC DRUGS” (Purdue Research Foundation, priority 2023, published 2026).
